According to patent US20260271925A1, “DYSREGULATION OF PLANKTONIC BACTERIAL METABOLISM” (Lixa Limited, priority 2023, published 2026):
≈ marks a conversion by molar mass, not a printed value.

Legend:
S. aureus 510 (MRSA) [1] = assay: Minimum inhibitory concentration by broth microdilution (Example 2); type: cell-based, Staphylococcus aureus; conditions: unit assumed; for MIC + 1 mM D-Lactic acid: antibiotic + 1 mM D-Lactic acid; for MIC + 10 mM D-Lactic acid: antibiotic + 10 mM D-Lactic acid; for MIC: antibiotic alone
Method: (§1) Bacterial strains were maintained as suspensions in 20% (v/v) glycerol/Brain-Heart Infusion at −80° C.
(§2) A standard inoculum was prepared from broth culture.
(§3) The broth culture was diluted in broth to a turbidity equal to a 0.5 McFarland Standard using a spectrophotometer at a wavelength of 620 nm. The 0.5 McFarland Standard was further diluted 1:100 in broth to create the standard inoculum. 50 μl of this standard inoculum was dispensed into every well in the microtitre tray, except the negative controls, where 50 μl of broth was dispensed instead.
(§4) Next, a working concentration at two times the highest target concentration for every antimicrobial was created in broth from stock solutions. 100 μl of this working concentration was pipetted into the first well, and 50 μl of broth media into all other wells. 50 μl of the first well was pipetted out and serially diluted across all wells in the row until the final concentration in the range achieved. 50 μl from the final well was removed and discarded. This produced a concentration range where each well was double the target concentration. All agents were performed in duplicate.
(§5) 96 well trays were incubated at 37° C. for 18±2 hours.

S. aureus 29213 (MSSA) [2] = assay: as above; type: cell-based, Staphylococcus aureus; conditions: for MIC + 1 mM D-Lactic acid: antibiotic + 1 mM D-Lactic acid; for MIC + 10 mM D-Lactic acid: antibiotic + 10 mM D-Lactic acid
Method: as §1, §2, §3, §4, §5

S. pneumoniae D39 [3] = assay: Resazurin reduction for the evaluation of metabolic activity (Example 2); type: cell-based, Streptococcus pneumoniae; conditions: plus 10 mM D-Lactic acid
Method: as §1
(§6) Aerobic respiration was measured in the presence or absence of D-Lactic acid and the presence or absence of companion antibiotics either following incubation and visual recording of the MIC, or in a separate study. For evaluation after completion of MIC determination, the entire volume of the MIC well (100 μl) was mixed by pipetting up and down, then transferred to the equivalent well of a fluorescence-absorbance suitable 96-well plate. Alternatively, cultures were pipetted together as above and incubated overnight at 37° C. in the absence of any antimicrobial compounds. Culture supernatants were removed, adherent cells washed and then treated by the addition of 100 μL of fresh broth, 50 μL of broth containing 4×the desired concentration of antibiotic and 50 μL containing 4×the desired concentration of D-Lactic acid or vehicle only controls, followed by incubation at 37° C. for a further 18±2 hours. After incubation regimes were completed for both procedures, resazurin reduction was evaluated by adding 10 μl of a 0.02% resazurin solution to every well, and incubating the plates with gentle shaking (40 rpm) for a further 90 minutes at 37° C. 96-well plates and resazurin were protected from light as much as possible.
(§7) Following incubation, the 96-well trays were read on a fluorescence-absorbance spectrophotometer, using an excitation frequency of 565 nm and emission frequency of 590 nm. The value for each well was blanked by subtracting the value of the negative control. Every value was then converted to a ratio with respect to the mean value of the positive controls.

S. aureus 510 (MRSA) [4] = assay: as above; type: cell-based, Staphylococcus aureus
Method: as §1, §6, §7

S. aureus 29213 (MSSA) [5] = assay: as above; type: cell-based, Staphylococcus aureus; conditions: plus 10 mM D-Lactic acid
Method: as §1, §6, §7

[6] = cited from earlier work
S. pneumoniae D39 [7] = assay: Minimum inhibitory concentration by broth microdilution (Example 2); type: cell-based, Streptococcus pneumoniae; conditions: for MIC + 1 mM D-Lactic acid: antibiotic + 1 mM D-Lactic acid; for MIC + 10 mM D-Lactic acid: antibiotic + 10 mM D-Lactic acid; for MIC: antibiotic alone
Method: (§8) Bacterial strains were maintained as suspensions in 20% (v/v) glycerol/Brain-Heart Infusion at −80° C. For use, a loop-full of ice was scraped from the stock and streaked for single colonies on rich media containing 1.8% agar (for Pseudomonas aeruginosa or Klebsiella pneumoniae, Luria-Bertani medium; for Staphylococcus aureus or Streptococcus pneumoniae, Trypticase Soy agar) and incubated overnight at 37° C.
(§9) A standard inoculum was prepared from broth culture. 1 to 3 colonies from an overnight agar culture plate were transferred to 5 ml of broth media and incubated at 37° C. with shaking (200 rpm) until turbidity was greater than that of a 0.5 McFarland Standard (overnight). The following broth media were used: Cation-adjusted Mueller-Hinton broth (caMHB—all strains); Roswell Park Memorial Institute medium (RPMI 1640, phenol red-free—S. aureus); Trypticase Soya Broth (TSB—S. aureus, S. pneumoniae); Todd Hewitt Broth (THB—S. pneumoniae), M63 minimal medium, supplemented with 0.2% glucose (M63—K. pneumoniae).
as §3, §4, §5

P. aeruginosa WACC91 = assay: as above; type: cell-based, Pseudomonas aeruginosa; conditions: for MIC + 1 mM D-Lactic acid: antibiotic + 1 mM D-Lactic acid; for MIC + 10 mM D-Lactic acid: antibiotic + 10 mM D-Lactic acid; for MIC: antibiotic alone
Method: as §8, §9, §3, §4, §5

[8] = test system: P. aeruginosa strain WACC91; assay: Resazurin reduction of planktonic cultures in M63 (glucose), D- versus L-Lactic acid (Example 3); type: cell-based, Pseudomonas aeruginosa
Method: . Viable cells reduce the blue resazurin dye to the pink, fluorescent resorufin form. Following incubation fluorescence was quantified by excitation wavelength of 540 nm and an emission wavelength of 590 nm using Enspire microplate reader.
P. aeruginosa strain WACC91 was maintained as a suspension in 20% (v/v) glycerol/Brain-Heart Infusion at −80° C. For use, a loop-full of ice was scraped from the stock and streaked for single colonies on LB media containing 1.8% agar and incubated overnight at 37° C. Isolated colonies were looped into 5 mL of LB broth and incubated at 37° C. with shaking until turbidity was greater than that of a 1.0 McFarland Standard (3-4 h).
The broth culture was diluted in M63 minimal media containing 0.2% (w/v) glucose as the sole carbon source to a turbidity equal to a 1.0 McFarland standard using a spectrophotometer at a wavelength of 595 nm. This culture was then diluted 1:100 in M63 (glucose) and 100 μL together with an additional 50 μL was transferred to each well of a 96 well microtitre tray and incubated overnight at 37° C., 5% CO2. D-Lactic acid, L-Lactic acid, or vehicle only (sterile H2O) was then applied by adding 50 μL of appropriate stock solutions diluted in M63 (glucose) and incubating for a further 24 hours at 37° C., 5% CO2. Culture metabolic activity was then determined using resazurin reduction as described above in Example 1.

S. aureus MRSA 510 = assay: Minimum inhibitory concentration of metal salts by broth microdilution in Trypticase Soya broth (Example 4); type: cell-based, Staphylococcus aureus
Method: Bacterial strains were maintained as suspensions in 20% (v/v) glycerol/Brain-Heart Infusion at −80° C. For use, a loop-full of ice was scraped from the stock and streaked for single colonies on Trypticase Soya agar containing 1.8% agar and incubated overnight at 37° C.
A standard inoculum was prepared from broth culture. One to three colonies from an overnight agar culture plate were transferred to 5 ml of broth media and incubated at 37° C. with shaking (200 rpm) until turbidity was greater than that of a 0.5 McFarland Standard (overnight). All assays were performed in Trypticase Soya broth.
as §3
as §4, with “salt (in aqueous solution)” for “antimicrobial”
as §5

## CO/N=C(\C(=O)N[C@@H]1C(=O)N2C(C(=O)O)=C(CSc3nc(=O)c(=O)[nH]n3C)CS[C@H]12)c1csc(N)n1 [ceftriaxone]
S. aureus 510 (MRSA) [1]
  MIC + 1 mM D-Lactic acid: 8 µg/mL
  MIC + 10 mM D-Lactic acid: 8 µg/mL
  MIC: 16 µg/mL (≈ 28.9 µM)
S. aureus 29213 (MSSA) [2]
  MIC + 1 mM D-Lactic acid: 4.0
  MIC + 10 mM D-Lactic acid: 4.0
S. pneumoniae D39 [3]
  Relative metabolic activity, antibiotic plus D-Lactic acid versus antibiotic only: enhances metabolic activity suppression
S. aureus 510 (MRSA) [4]; plus 0.1 mM D-Lactic acid
  Relative metabolic activity, antibiotic plus D-Lactic acid versus antibiotic only: enhances metabolic activity suppression
S. aureus 29213 (MSSA) [5]
  Relative metabolic activity, antibiotic plus D-Lactic acid versus antibiotic only: enhances metabolic activity suppression

## CCCC(O)C(=O)O (stereo not drawn) [2-hydroxypentanoic acid]
[6]
  Water solubility*: 1640 mM

## C[C@@H](O)[C@H]1C(=O)N2C(C(=O)O)=C(S[C@@H]3CN[C@H](C(=O)N(C)C)C3)[C@H](C)[C@H]12 [meropenem]
S. aureus 510 (MRSA) [1]
  MIC + 1 mM D-Lactic acid: 2 µg/mL
  MIC + 10 mM D-Lactic acid: 2 µg/mL
  MIC: > 4 µg/mL
S. aureus 29213 (MSSA) [2]
  MIC + 1 mM D-Lactic acid: 0.5
  MIC + 10 mM D-Lactic acid: 0.5
S. pneumoniae D39 [7]
  MIC + 1 mM D-Lactic acid: 0.25
  MIC + 10 mM D-Lactic acid: 0.5
  MIC: 0.5
P. aeruginosa WACC91
  MIC + 1 mM D-Lactic acid: <0.5
  MIC + 10 mM D-Lactic acid: <0.5
  MIC: 1.0
S. aureus 510 (MRSA) [4]; plus 10 mM D-Lactic acid
  Relative metabolic activity, antibiotic plus D-Lactic acid versus antibiotic only: enhances metabolic activity suppression
S. aureus 29213 (MSSA) [5]
  Relative metabolic activity, antibiotic plus D-Lactic acid versus antibiotic only: enhances metabolic activity suppression

## CCCCC(O)C(=O)O (stereo not drawn) [2-hydroxyhexanoic acid]
[6]
  Water solubility*: 270 mM

## C[C@H](O)C(=O)O [L-Lactic acid]
[8]; Resazurin reduction in comparison to vehicle-only treatment
  breakpoint of metabolic rate (concentration range in which the change of activity is clearest): No comparable breakpoint is observed
[8]; resorufin fluorescence, same concentrations as D-Lactic acid
  change in metabolic activity: No change in metabolic activity

## O=C(O)C(O)c1ccccc1 (stereo not drawn) [2-hydroxy-2-phenylacetic acid]
[6]
  Water solubility*: 1140 mM

## CN(C)[C@@H]1C(O)=C(C(N)=O)C(=O)[C@@]2(O)C(O)=C3C(=O)c4c(O)cccc4[C@@](C)(O)[C@H]3C[C@@H]12 [tetracycline]
S. aureus 510 (MRSA) [1]
  MIC + 1 mM D-Lactic acid: < 0.5 µg/mL
  MIC + 10 mM D-Lactic acid: < 0.5 µg/mL
  MIC: 1 µg/mL (≈ 2.25 µM)

## CC1(C)S[C@@H]2[C@H](NC(=O)[C@H](N)c3ccccc3)C(=O)N2[C@H]1C(=O)O [ampicillin]
S. pneumoniae D39 [7]
  MIC + 1 mM D-Lactic acid: 4.0
  MIC + 10 mM D-Lactic acid: 4.0
  MIC: >16.0
S. pneumoniae D39 [3]
  Relative metabolic activity, antibiotic plus D-Lactic acid versus antibiotic only: enhances metabolic activity suppression

## COc1cccc(OC)c1C(=O)N[C@@H]1C(=O)N2[C@@H]1SC(C)(C)[C@@H]2C(=O)O [methicillin]
S. aureus 510 (MRSA) [1]
  MIC + 1 mM D-Lactic acid: 2 µg/mL
  MIC + 10 mM D-Lactic acid: 2 µg/mL
  MIC: > 16 µg/mL
S. aureus 29213 (MSSA) [2]
  MIC + 1 mM D-Lactic acid: 0.5
  MIC + 10 mM D-Lactic acid: 0.5
S. aureus 510 (MRSA) [4]; plus 10 mM D-Lactic acid
  Relative metabolic activity, antibiotic plus D-Lactic acid versus antibiotic only: enhances metabolic activity suppression
S. aureus 29213 (MSSA) [5]
  Relative metabolic activity, antibiotic plus D-Lactic acid versus antibiotic only: enhances metabolic activity suppression

## C[C@H]1[C@H](NC(=O)/C(=N\OC(C)(C)C(=O)O)c2csc(N)n2)C(=O)N1S(=O)(=O)O [aztreonam]
P. aeruginosa WACC91
  MIC + 1 mM D-Lactic acid: 4.0
  MIC + 10 mM D-Lactic acid: 4.0
  MIC: 8.0

## CCC(O)C(=O)O (stereo not drawn) [2-hydroxybutanoic acid]
[6]
  Water solubility*: 1930 mM

## CC1(C)S[C@@H]2[C@H](NC(=O)[C@H](N)c3ccc(O)cc3)C(=O)N2[C@H]1C(=O)O [amoxicillin]
S. aureus 29213 (MSSA) [2]
  MIC + 1 mM D-Lactic acid: <1.0
  MIC + 10 mM D-Lactic acid: 2.0
S. pneumoniae D39 [7]
  MIC + 1 mM D-Lactic acid: 0.25
  MIC + 10 mM D-Lactic acid: 0.25
  MIC: 0.5
S. pneumoniae D39 [3]
  Relative metabolic activity, antibiotic plus D-Lactic acid versus antibiotic only: enhances metabolic activity suppression

## CN[C@H](CC(C)C)C(=O)N[C@H]1C(=O)N[C@@H](CC(N)=O)C(=O)N[C@H]2C(=O)N[C@H]3C(=O)N[C@H](C(=O)N[C@H](C(=O)O)c4cc(O)cc(O)c4-c4cc3ccc4O)[C@H](O)c3ccc(c(Cl)c3)Oc3cc2cc(c3O[C@@H]2O[C@H](CO)[C@@H](O)[C@H](O)[C@H]2O[C@H]2C[C@](C)(N)[C@H](O)[C@H](C)O2)Oc2ccc(cc2Cl)[C@H]1O [vancomycin]
S. aureus 510 (MRSA) [1]
  MIC + 1 mM D-Lactic acid: 2 µg/mL
  MIC + 10 mM D-Lactic acid: 2 µg/mL
  MIC: 8 µg/mL (≈ 5.52 µM)
S. aureus 29213 (MSSA) [2]
  MIC + 1 mM D-Lactic acid: 4.0
  MIC + 10 mM D-Lactic acid: 2.0
S. pneumoniae D39 [3]
  Relative metabolic activity, antibiotic plus D-Lactic acid versus antibiotic only: enhances metabolic activity suppression
S. aureus 510 (MRSA) [4]; plus 1.0 mM D-Lactic acid
  Relative metabolic activity, antibiotic plus D-Lactic acid versus antibiotic only: enhances metabolic activity suppression
S. aureus 29213 (MSSA) [5]
  Relative metabolic activity, antibiotic plus D-Lactic acid versus antibiotic only: enhances metabolic activity suppression

## [Cu+2] [Cu^2+]
S. aureus MRSA 510; metal ion as D-Lactate salt
  MIC D-Lactate salt: 4 mM
S. aureus MRSA 510; metal ion as nitrate salt
  MIC (NO3)2 salt: 8 mM
